The subject of assay [1] is MCF-7 cells. Nature of the assay: Breast cancer cell line proliferation inhibitory activity (CellTiter-Glo 2.0). In kind it is cell-based. As to conditions: Homo sapiens, MCF7, 120 hours. The essentials: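 MCF-7 cells exposed to a 12-point, 3-fold dilution series (final 0.00005–10 μM) for 120 h at 37 °C. Viability read by CellTiter-Glo 2.0 luminescence, expressed as percent of vehicle-treated cells. GI50 (nM) derived from the curves.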
For orientation: Cellular ATP, detected with luciferase, serves as a proxy for viable cell number.

The test system of assay [2] is MV4-11 cells. Nature of the assay: AML cell proliferation inhibitory activity (CellTiter-Glo). To be noted: Homo sapiens, 72 hours. It is filed as cell-based. The essentials:
(§1)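 RS4;11 and MV4-11 cells in RPMI-1640 with 10% FBS, seeded 24 h before treatment, then exposed 72 h to 12 three-fold dilutions (0.3 nM–50 μM final). Viability by CellTiter-Glo luminescence relative to solvent control; GI50 from triplicate experiments.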

In assay [3] the test system is RS4;11 cells. The assay is described as above. In kind it is cell-based. To be noted: Homo sapiens, 72 hours. In short, it runs like this:
as §1

The target in assay [4] is T1, human GST-HPK1 (1-346) (Homo sapiens, UniProt Q92918).
T1 construct: purified human GST-HPK1 (1-346, Signalchem) enzyme; purchased Signalchem
T1 sequence (Q92918 1-346): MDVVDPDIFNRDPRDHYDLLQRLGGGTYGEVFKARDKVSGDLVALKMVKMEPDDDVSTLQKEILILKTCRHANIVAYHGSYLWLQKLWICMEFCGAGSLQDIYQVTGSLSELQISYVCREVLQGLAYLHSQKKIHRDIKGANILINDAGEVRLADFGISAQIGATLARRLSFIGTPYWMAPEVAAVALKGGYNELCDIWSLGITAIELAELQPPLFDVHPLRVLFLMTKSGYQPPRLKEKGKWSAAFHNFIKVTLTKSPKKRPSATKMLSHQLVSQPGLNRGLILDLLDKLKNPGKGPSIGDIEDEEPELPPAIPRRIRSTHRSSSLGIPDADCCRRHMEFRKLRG
Nature of the assay: HPK1 enzyme inhibitory ability (ADP-Glo kinase assay). To be noted: human GST-HPK1 3 ng, ATP 3 uM, 25° C. 2 hours. In kind it is biochemical. In short, it runs like this:
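Human GST-HPK1(1-346), 3 ng, reacted with 3 uM ATP and specific substrate in 40 mM Tris-HCl pH 7.4, 20 mM MgCl2, 0.5 mg/mL BSA, 50 uM DTT for 2 h at 25° C. ADP-Glo luminescence read; IC50 (nM) relative to untreated solvent control.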
On the technique in general: In ADP-Glo the light output rises with the ADP produced.

Assay [5] concerns the target T2, human FLT3-ITD enzyme (Homo sapiens, UniProt P36888).
T2 sequence (P36888 1-993): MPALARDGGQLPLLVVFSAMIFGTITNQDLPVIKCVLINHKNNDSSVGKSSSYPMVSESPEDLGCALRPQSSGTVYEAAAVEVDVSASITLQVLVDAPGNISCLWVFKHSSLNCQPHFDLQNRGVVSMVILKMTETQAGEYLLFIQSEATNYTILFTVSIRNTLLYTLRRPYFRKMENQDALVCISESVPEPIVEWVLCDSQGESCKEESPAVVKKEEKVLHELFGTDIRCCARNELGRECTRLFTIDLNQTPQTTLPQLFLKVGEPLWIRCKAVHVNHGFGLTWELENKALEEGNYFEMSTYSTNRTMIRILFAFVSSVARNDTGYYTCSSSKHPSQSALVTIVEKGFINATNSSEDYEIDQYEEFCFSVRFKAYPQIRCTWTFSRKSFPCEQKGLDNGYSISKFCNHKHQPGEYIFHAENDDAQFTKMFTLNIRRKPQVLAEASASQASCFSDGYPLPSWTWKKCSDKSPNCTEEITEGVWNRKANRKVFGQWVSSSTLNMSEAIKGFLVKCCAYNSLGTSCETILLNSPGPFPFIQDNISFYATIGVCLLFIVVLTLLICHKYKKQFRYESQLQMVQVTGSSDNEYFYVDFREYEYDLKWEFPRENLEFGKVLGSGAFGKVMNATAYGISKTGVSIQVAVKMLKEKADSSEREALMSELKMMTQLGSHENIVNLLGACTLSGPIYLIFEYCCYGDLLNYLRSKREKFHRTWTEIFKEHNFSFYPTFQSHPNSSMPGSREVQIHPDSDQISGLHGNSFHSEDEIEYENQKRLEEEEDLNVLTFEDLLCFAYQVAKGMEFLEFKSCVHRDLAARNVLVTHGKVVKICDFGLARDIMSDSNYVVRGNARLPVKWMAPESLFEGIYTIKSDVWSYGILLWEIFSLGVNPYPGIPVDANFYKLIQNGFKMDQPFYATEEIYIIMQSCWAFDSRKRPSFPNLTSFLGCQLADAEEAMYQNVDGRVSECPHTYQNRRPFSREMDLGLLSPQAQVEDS
Nature of the assay: FLT3 enzyme inhibitory ability (ADP-Glo kinase assay). To be noted: human FLT3-ITD enzyme 10 ng, ATP 10 μM, 25° C. 1 hour. It is filed as biochemical. In short, it runs like this: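 Purified human FLT3-ITD (10 ng) with 10 μM ATP and specific substrate in 40 mM Tris-HCl pH 7.4, 20 mM MgCl2, 0.5 mg/mL BSA, 50 μM DTT, 1 h at 25 °C. ADP formation read by ADP-Glo luminescence; IC50 (nM) versus solvent-treated control.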

Assay [6] addresses CDK4-cyclinD1 (Homo sapiens, UniProt P11802). The experiment in a line: CDK4 enzyme inhibitory ability (Reaction Biology). It is filed as biochemical. Also noted: purchased Reaction Biology (USA), contract assay. As to conditions: measured in Reaction Biology (USA). Here is the method: (§2) In order to evaluate the CDK4 and CDK6 enzyme inhibitory activities of the example compounds according to the present invention, IC5O (nM) was measured for the CDK4 cyclin D1 and CDK6 cyclin D1 enzymes in Reaction Biology (USA), and the results were shown in Table 3 below.

Assay [7] addresses T3, CDK6 cyclin D1 (Homo sapiens, UniProt Q00534).
T3 construct: purchased Reaction Biology (USA), contract assay
Nature of the assay: CDK6 enzyme inhibitory ability (Reaction Biology). It is filed as biochemical. To be noted: measured in Reaction Biology (USA). As for the experimental part: as §2

Broadly, the GI50 is the concentration at which growth is held to half of that of the control. A word on the IC50: it is the concentration at which inhibition is half-maximal. Lower therefore signals higher potency.

T3 sequence (Q00534 whole entry): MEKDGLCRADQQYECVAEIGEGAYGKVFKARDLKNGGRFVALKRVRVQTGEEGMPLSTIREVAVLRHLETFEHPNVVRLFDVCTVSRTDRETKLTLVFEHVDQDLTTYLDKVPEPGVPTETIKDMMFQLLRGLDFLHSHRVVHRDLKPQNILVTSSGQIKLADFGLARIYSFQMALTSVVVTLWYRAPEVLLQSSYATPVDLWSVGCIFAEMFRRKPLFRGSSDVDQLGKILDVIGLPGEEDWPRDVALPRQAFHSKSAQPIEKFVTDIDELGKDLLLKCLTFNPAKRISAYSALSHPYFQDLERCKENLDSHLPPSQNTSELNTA
T3 sequence (P24385 whole entry partner): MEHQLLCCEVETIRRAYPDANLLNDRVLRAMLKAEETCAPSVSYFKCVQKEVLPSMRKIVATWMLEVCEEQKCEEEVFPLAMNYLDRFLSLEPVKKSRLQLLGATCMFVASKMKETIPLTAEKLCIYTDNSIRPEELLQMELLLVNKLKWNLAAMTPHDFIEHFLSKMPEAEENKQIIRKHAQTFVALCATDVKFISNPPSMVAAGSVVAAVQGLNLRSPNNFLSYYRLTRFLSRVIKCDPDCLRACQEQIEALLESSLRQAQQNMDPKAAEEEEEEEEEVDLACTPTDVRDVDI
Sequence of CDK4-cyclinD1 (P11802 whole entry): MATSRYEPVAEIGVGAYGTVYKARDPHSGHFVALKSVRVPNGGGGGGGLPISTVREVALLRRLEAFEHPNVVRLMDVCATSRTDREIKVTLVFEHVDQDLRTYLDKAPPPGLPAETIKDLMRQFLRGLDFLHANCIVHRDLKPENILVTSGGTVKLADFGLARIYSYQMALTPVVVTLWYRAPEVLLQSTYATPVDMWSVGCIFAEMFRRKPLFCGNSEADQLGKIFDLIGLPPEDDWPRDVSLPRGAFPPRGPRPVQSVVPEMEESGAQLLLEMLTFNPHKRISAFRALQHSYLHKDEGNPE
Sequence of CDK4-cyclinD1 (P24385 whole entry partner): as the sequence (P24385 whole entry partner) above

In the case of `CCN(CC)CCOc1ccc(Nc2nc(N3N=CCC3c3ccccc3)c3sccc3n2)cc1` (stereo not shown) [Example 45, N-(4-(2-(diethylamino)ethoxy)phenyl)-4-(5-phenyl-4,5-dihydro-1H-pyrazol-1-yl)thieno[3,2-d]pyrimidin-2-amine], the figures for the GI50 in assay [1], in assay [2] and in assay [3] were > 500 nM, 250 to 500 nM and > 500 nM, respectively. For the same compound, the half-maximal inhibitory concentration (IC50) was > 500 nM in assay [4] and 250 to 500 nM in assay [5].

As to `CCN(CC)CCCOc1ccc(Nc2nc(N3N=CCC3c3ccccc3)c3sccc3n2)cc1` (stereo not shown) [Example 47, N-(4-(3-(diethylamino)propoxy)phenyl)-4-(5-phenyl-4,5-dihydro-1H-pyrazol-1-yl)thieno[3,2-d]pyrimidin-2-amine], the GI50 was > 500 nM in assay [1], ≥ 250 nM in assay [2] and > 500 nM in assay [3]. The figures for the IC50 in assay [4] and in assay [5] were > 500 nM and 250 to 500 nM, respectively.

In the case of `CCN(CC)CCCOc1c(C)cc(Nc2nc(N3N=CCC3c3ccccc3)c3sccc3n2)cc1C` (stereo not shown) [Example 48, N-(4-(3-(diethylamino)propoxy)-3,5-dimethylphenyl)-4-(5-phenyl-4,5-dihydro-1H-pyrazol-1-yl)thieno[3,2-d]pyrimidin-2-amine], the 50% growth inhibitory concentration (GI50) in assay [1], in assay [2] and in assay [3] was > 500 nM in each case. Further, the half-inhibitory concentration (IC50) in assay [4] and in assay [5] was > 500 nM each time.

With `CCN1CCN(c2ccc(Nc3nc(N4OCC[C@H]4c4ccccc4)c4cc[nH]c4n3)cc2)CC1` [Example 79, (S)-N-(4-(4-ethylpiperazin-1-yl)phenyl)-4-(3-phenylisoxazolidin-2-yl)-7H-pyrrolo[2,3-d]pyrimidin-2-amine], the GI50 in assay [1] was > 500 nM; in assay [2], ≥ 250 nM; in assay [3], > 500 nM. Also, the figures for the IC50 in assay [4] and in assay [5] were ≥ 250 nM and 250 to 500 nM, respectively.

With `CN1CCN(C2CCN(c3ccc(Nc4nc(N5OCC[C@H]5c5ccccc5)c5cc[nH]c5n4)cc3)CC2)CC1` [Example 84, (S)-N-(4-(4-(4-methylpiperazin-1-yl)piperidin-1-yl)phenyl)-4-(3-phenylisoxazolidin-2-yl)-7H-pyrrolo[2,3-d]pyrimidin-2-amine], the GI50 was > 500 nM in assay [1], ≥ 250 nM in assay [2] and ≥ 250 nM in assay [3]. Further, the IC50 in assay [4] and in assay [5] was ≥ 250 nM throughout.

In the case of `CN1CCN(c2ccc(Nc3nc(N4OCC[C@H]4c4ccccc4)c4c(Cl)c[nH]c4n3)cc2)CC1` [Example 116, (S)-5-chloro-N-(4-(4-methylpiperazin-1-yl)phenyl)-4-(3-phenylisoxazolidin-2-yl)-7H-pyrrolo[2,3-d]pyrimidin-2-amine], the GI50 in assay [1] and in assay [2] was > 500 nM throughout. Moreover, the IC50 in assay [4], in assay [6], in assay [7] and in assay [5] was ≥ 250 nM each time.

For the compound `CN1CCN(c2ccc(Nc3nc(N4OCC[C@H]4c4ccccc4)c4c(C#N)c[nH]c4n3)cc2)CC1` [Example 118, (S)-2-((4-(4-methylpiperazin-1-yl)phenyl)amino)-4-(3-phenylisoxazolidin-2-yl)-7H-pyrrolo[2,3-d]pyrimidine-5-carbonitrile], the GI50 in assay [1] and in assay [2] was > 500 nM throughout. Also, the IC50 in assay [4], in assay [6], in assay [7] and in assay [5] was ≥ 250 nM each time.

As to `CN1CCN(c2ccc(Nc3nc(N4OCC[C@H]4c4ccccc4)c4c(C(F)(F)F)c[nH]c4n3)cc2)CC1` [Example 123, (S)-N-(4-(4-methylpiperazin-1-yl)phenyl)-4-(3-phenylisoxazolidin-2-yl)-5-(trifluoromethyl)-7H-pyrrolo[2,3-d]pyrimidin-2-amine], the concentration for 50% growth inhibition (GI50) in assay [1] and in assay [2] was > 500 nM in each case. The IC50 in assay [4] was > 500 nM; in assay [6], ≥ 250 nM; in assay [7], ≥ 250 nM; in assay [5] it was ≥ 250 nM.

For the origin of these results see US20220242870A1, “HETEROCYCLE-FUSED PYRIMIDINE DERIVATIVE AND USE THEREOF” (VORONOI Inc., priority 2019, published 2022).
